Assay results: patent US20200024246A1, “POGOSTONE DERIVATIVES AND METHODS OF USING THE SAME” (Hamyard Associates LLC, priority 2018, published 2020)
Entries after “also recorded” stand apart in the source; their conditions may differ. Where two headings read alike, the source gives them in different places.

Legend:
adult, female mosquitoes = assay: Topical application on adult female mosquitoes (24-h mortality, 1-h knockdown); assay type: in vivo, mosquito; conditions: for ED50: read-out: KD50 (ug/g mosquito); for LD50: read-out: LD50 (ug/g mosquito)
adult female mosquitoes = assay: whole plant or invertebrate; conditions: for pest or weed control at 0.5 % / pest or weed control at 1.5 % / mortality at 0.5 % / mortality at 1.5 %: Culicidae; for pest or weed control at 0.5 % / pest or weed control at 1.5 %: 1 h; for pest or weed control at 0.5 %: read-out: Knockdown at 0.5%; for pest or weed control at 1.5 %: read-out: Knockdown at 1.5%; for mortality at 0.5 %: read-out: Mortality at 0.5%; for mortality at 1.5 %: read-out: Mortality at 1.5%; for ranking in knockdown and mortality screenings: words; for Percent Knockdown at 1 Hour / Percent Mortality: mosquitoes; for Percent Knockdown at 1 Hour: 0.5% solutions; for Percent Mortality: 24 hours
Experimental: The first group of DHAA-based derivatives that were tested included Formula A2, Formula B3, Formula C3, and Formula D3. A solution of 0.5% or 1.5% of each of these compounds was applied to the mosquitoes, as described above. […] Acetone was used as a control.

[1] = Mosquito Knockdown Properties (1 hour), topical application

SMILES	pest or weed control at 0.5 % (adult female mosquitoes; topical)	pest or weed control at 1.5 % (adult female mosquitoes; topical)	mortality at 0.5 % (adult female mosquitoes; topical, 24 h)	mortality at 1.5 % (adult female mosquitoes; topical, 24 h)	also measured
CCCCCCCCCC(=O)c1c(O)c2ccccc2oc1=O [Formula 18]					ED50 (adult, female mosquitoes; topical, 1 h): > 1500 mg/kg; LD50 (adult, female mosquitoes; topical, 24 h): > 1500 mg/kg
Cc1ccc(C(C)C)c(O)c1 [Thymol, reference compound]					ED50 (adult, female mosquitoes; [1]): 1700 mg/kg
Cc1cc(O)c(C(=O)CCC=O)c(=O)o1 [Formula C18]	3%	0%	3%	7%	
C=CCCC(=O)c1cc2ccccc2oc1=O [Formula 22]					LD50 (adult, female mosquitoes; topical, 24 h): > 1500 mg/kg
Cc1cc(O)c(C(=O)CC(O)C2CCCCC2)c(=O)o1 (stereo not shown) [Formula C15]	23%	50%	33%	63%	ranking in knockdown and mortality screenings (adult female mosquitoes): appear to be the most potent insecticidal compounds
CC(C)CCC(=O)c1c(O)cc(-c2ccccc2)oc1=O [Formula 9]					ED50 (adult, female mosquitoes; [1]): > 1500 mg/kg; LD50 (adult, female mosquitoes; Mosquito Toxicity (24 hours), topical application to pronotum): > 1500 mg/kg
Cc1cc(O)c(C(=O)COC(C)C)c(=O)o1 [Formula C3]					Percent Knockdown at 1 Hour (adult female mosquitoes): 98%; Percent Mortality (adult female mosquitoes; at 0.5%): 89%; Percent Mortality (adult female mosquitoes; at 1.5%): 88%; LD50 (adult female mosquitoes; topical, 24 h, read-out: 24-hour Mortality LD50 (μg/g mosquito)): 183 mg/kg; ranking in knockdown and mortality screenings (adult female mosquitoes): performed the best in terms of highest percent knockdown and mortality; also recorded: performed the best in the initial knockdown and mortality screenings
CCCCCCCCCC(=O)c1c(O)c2ccccc2n(C)c1=O [Formula 20]					LD50 (adult, female mosquitoes; topical, 24 h): > 1500 mg/kg
Cc1cc2c(c(=O)o1)C(=O)CC(C(C)C)O2 (stereo not shown) [Formula C16]	0%	7%	3%	3%	
Cc1cc(O)c(C(=O)COCC(=O)O)c(=O)o1 [Formula C14]	7%	0%	13%	40%	
CC(C)CCC(=O)C1C(=O)N(C)C(=O)N(C)C1=O [Formula C24]	93%	100%	97%	97%	ranking in knockdown and mortality screenings (adult female mosquitoes): appear to be the most potent insecticidal compounds
Cc1cc(O)c(C(=O)/C=C/C(C)(C)C)c(=O)o1 [Formula C21]	3%	7%	0%	0%	
CC(=O)c1c(O)c2ccccc2oc1=O [Formula C27]	100%	73%	97%	83%	
CCCCC(CC)CNC(=O)c1c(O)cc(C)oc1=O (stereo not shown) [Formula B3]					Percent Knockdown at 1 Hour (adult female mosquitoes): 2%; Percent Mortality (adult female mosquitoes; at 0.5%): 9%; Percent Mortality (adult female mosquitoes; at 1.5%): 16%
Cc1cc(O)c(C(=O)CCC(O)CBr)c(=O)o1 (stereo not shown) [Formula C20]	17%	10%	10%	20%	
CC(=O)CCC(=O)c1c(O)cc(C)oc1=O [Formula C17]	27%	13%	47%	7%	
C=CCCC(=O)c1c(O)cc(C)oc1=O [Formula C26]	100%	97%	100%	100%	ranking in knockdown and mortality screenings (adult female mosquitoes): appear to be the most potent insecticidal compounds
CC(C)C(O)CC(=O)c1c(O)c2ccccc2oc1=O (stereo not shown) [Formula C25]	93%	100%	100%	100%	ranking in knockdown and mortality screenings (adult female mosquitoes): appear to be the most potent insecticidal compounds
Cc1cc2occ(CC(C)C)c(=O)c2c(=O)o1 [Formula C22]	10%	10%	7%	13%	
Cc1cc(O)c(C(=O)Nc2ccccc2)c(=O)o1 [Formula A3]					Percent Knockdown at 1 Hour (adult female mosquitoes): 4%; Percent Mortality (adult female mosquitoes; at 0.5%): 5%; Percent Mortality (adult female mosquitoes; at 1.5%): 19%
